Test [1] has as its target T1, 11-beta-hydroxysteroid dehydrogenase 1 (Homo sapiens, UniProt P28845). As to conditions: HEK293, at 200 nM.
Target sequence in this assay (P28845 whole entry, looked up): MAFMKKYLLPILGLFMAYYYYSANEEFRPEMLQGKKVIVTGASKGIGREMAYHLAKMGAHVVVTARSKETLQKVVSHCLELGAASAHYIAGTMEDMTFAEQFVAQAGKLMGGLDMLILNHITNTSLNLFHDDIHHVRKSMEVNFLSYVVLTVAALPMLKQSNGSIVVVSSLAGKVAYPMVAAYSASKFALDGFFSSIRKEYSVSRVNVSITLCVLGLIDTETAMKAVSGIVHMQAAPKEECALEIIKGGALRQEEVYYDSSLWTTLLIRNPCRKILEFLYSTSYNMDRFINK
Description: Inhibition of human recombinant 11beta-HSD1 expressed in HEK293 cells assessed as residual conversion of [1,2-[3H]cortisone to cortisol at 200 nM after 10 mins by scintillation counting
Test [2] deals with T2, 11-beta-hydroxysteroid dehydrogenase type 2 (Homo sapiens) (UniProt P80365).
T2 sequence (whole entry): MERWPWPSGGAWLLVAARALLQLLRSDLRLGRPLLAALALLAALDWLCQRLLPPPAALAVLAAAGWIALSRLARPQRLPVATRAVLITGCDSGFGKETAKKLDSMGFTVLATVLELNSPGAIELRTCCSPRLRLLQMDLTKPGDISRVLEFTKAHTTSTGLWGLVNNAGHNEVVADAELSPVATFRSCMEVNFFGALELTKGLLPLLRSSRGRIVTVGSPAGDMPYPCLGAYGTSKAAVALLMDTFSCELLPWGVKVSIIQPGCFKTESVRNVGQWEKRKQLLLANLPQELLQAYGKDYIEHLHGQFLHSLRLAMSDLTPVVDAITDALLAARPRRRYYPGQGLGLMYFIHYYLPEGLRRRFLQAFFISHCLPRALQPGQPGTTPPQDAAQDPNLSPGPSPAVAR
The following applies: HEK293, at 200 nM.
Description: Inhibition of human 11beta-HSD2 expressed in HEK293 cells assessed as residual conversion of [1,2,6,7-[3H]cortisol to cortisone at 200 nM after 10 mins by scintillation counting

Test [3] concerns the target T1, 11-beta-hydroxysteroid dehydrogenase 1. The test can be described thus: Inhibition of human recombinant 11beta-HSD1 expressed in HEK293 cells assessed as conversion of [1,2-[3H]cortisone to cortisol after 10 mins by scintillation counting. Format: cell-based.
Target sequence in this assay (P28845 whole entry): as the sequence (P28845 whole entry, looked up) above
For test [4] the target is unchanged. As to conditions: HEK293, at 1000 nM.
Target sequence in this assay (P28845 whole entry, looked up): as the sequence (P28845 whole entry, looked up) above
Description: Inhibition of human recombinant 11beta-HSD1 expressed in HEK293 cells assessed as residual conversion of [1,2-[3H]cortisone to cortisol at 1000 nM after 10 mins by scintillation counting
Test [5] has as its target T2, 11-beta-hydroxysteroid dehydrogenase type 2 (Homo sapiens). The following applies: HEK293, at 1000 nM.
Description: Inhibition of human 11beta-HSD2 expressed in HEK293 cells assessed as residual conversion of [1,2,6,7-[3H]cortisol to cortisone at 1000 nM after 10 mins by scintillation counting
Test [6] deals with T1, 11-beta-hydroxysteroid dehydrogenase 1. As to conditions: HEK293, at 1 µM.
Target sequence in this assay (P28845 whole entry, looked up): as the sequence (P28845 whole entry, looked up) above
Description: Inhibition of human recombinant 11beta-HSD1 expressed in HEK293 cells assessed as conversion of [1,2-[3H]cortisone to cortisol at 1 uM after 10 mins by scintillation counting
Test [7] has as its target T3, 11-beta-hydroxysteroid dehydrogenase type 2 (Homo sapiens, UniProt P80365).
T3 sequence (P80365 whole entry): T2 sequence (whole entry)
The test is described as follows: Inhibition of human 11beta-HSD2 expressed in HEK293 cells assessed as conversion of [1,2,6,7-[3H]cortisol to cortisone after 10 mins by scintillation counting. It counts as cell-based.

Usually residual activity stands for the signal under treatment as a percentage of the control signal. Turning to `CC(=O)O[C@H]1CC[C@]2(C)[C@H]3C(=O)C=C4[C@@H]5C[C@@](C)(NC(=O)N(CCO)CCO)CC[C@]5(C)CC[C@@]4(C)[C@]3(C)CC[C@H]2C1(C)C`, the figures for the residual activity in test [1] and in test [2] were 102% and 93%, respectively.

For `CC(=O)O[C@H]1CC[C@]2(C)[C@H]3C(=O)C=C4[C@@H]5C[C@@](C)(NC(=O)NS(C)(=O)=O)CC[C@]5(C)CC[C@@]4(C)[C@]3(C)CC[C@H]2C1(C)C`, the figures for the residual activity in test [1] and in test [2] were 90% and 20%, respectively.

Broadly, the IC50 is the concentration needed to halve the response being measured. On to `CN(O)C(=O)[C@@]1(C)CC[C@]2(C)CC[C@]3(C)C(=CC(=O)[C@@H]4[C@@]5(C)CCC(=O)NC(C)(C)[C@@H]5CC[C@]43C)[C@@H]2C1`, for which the residual activity in test [1] amounted to 73%. Further, the IC50 in test [3] was more than 40 µM.

Turning to `CC(=O)N[C@H]1CC[C@]2(C)[C@H]3C(=O)C=C4[C@@H]5C[C@@](C)(C(=O)O)CC[C@]5(C)CC[C@@]4(C)[C@]3(C)CC[C@H]2C1(C)C`, the figures for the residual activity in test [4] and in test [5] were 36% and 0.2%, respectively.

For `CC1(C)C(=O)CC[C@]2(C)[C@H]3C(=O)C=C4[C@@H]5C[C@@](C)(NC(N)=O)CC[C@]5(C)CC[C@@]4(C)[C@]3(C)CC[C@@H]12`, the IC50 in test [3] was more than 10 µM.

A word on the inhibition: it is the share of the control response that was lost under treatment. A lower inhibition goes with a weak effect. For the molecule `CC1(C)[C@@H](O)CC[C@]2(C)[C@H]3C(=O)C=C4[C@@H]5C[C@@](C)(C(=O)O)CC[C@]5(C)CC[C@@]4(C)[C@]3(C)CC[C@@H]12`, the residual activity in test [4] amounted to 16%. The molecule further registered an inhibition in test [6] of 83.9%.

Regarding `CC(=O)O[C@H]1CC[C@]2(C)[C@H]3C(=O)C=C4[C@@H]5C[C@@](C)(NC(=O)N(C)O)CC[C@]5(C)CC[C@@]4(C)[C@]3(C)CC[C@H]2C1(C)C`, the residual activity in test [1] was determined as 96%; in test [2], 110%.

Take `CC(=O)O[C@H]1CC[C@]2(C)[C@H]3C(=O)C=C4[C@@H]5C[C@@](C)(NC(=O)NCCO)CC[C@]5(C)CC[C@@]4(C)[C@]3(C)CC[C@H]2C1(C)C`: the residual activity in test [1] came to 97%; in test [2] it was 38%.

As for `CC1(C)C(=O)CC[C@]2(C)[C@H]3C(=O)C=C4[C@@H]5C[C@@](C)(C(=O)O)CC[C@]5(C)CC[C@@]4(C)[C@]3(C)CC[C@@H]12`, in test [4], the residual activity turned out to be 36%.

Consider `CC(=O)O[C@H]1CC[C@]2(C)[C@H]3C(=O)C=C4[C@@H]5C[C@@](C)(C(=O)O)CC[C@]5(C)CC[C@@]4(C)[C@]3(C)CC[C@H]2C1(C)C`, for which the residual activity in test [4] worked out at 12%.

On to `CC(=O)O[C@H]1CC[C@]2(C)[C@H]3C(=O)C=C4[C@@H]5C[C@@](C)(NC(=O)NO)CC[C@]5(C)CC[C@@]4(C)[C@]3(C)CC[C@H]2C1(C)C`, for which the residual activity came out at 92% in test [1] and 34% in test [2].

Consider `CC1(C)[C@@H](O)CC[C@]2(C)C3=CC(=O)[C@H]4[C@@H]5C[C@@](C)(C(=O)O)CC[C@]5(C)CC[C@@]4(C)[C@]3(C)CC[C@@H]12`, for which the values for the residual activity in test [1] and in test [2] were 77% and 85%, respectively.

Take `CC1(C)[C@@H](OC(=O)CCC(=O)O)CC[C@]2(C)[C@H]3C(=O)C=C4[C@@H]5C[C@@](C)(C(=O)O)CC[C@]5(C)CC[C@@]4(C)[C@]3(C)CC[C@@H]12`: the residual activity in test [4] turned out to be 12%.

In the case of `CC1(C)[C@@H](Oc2noc(=O)[nH]2)CC[C@]2(C)[C@H]3C(=O)C=C4[C@@H]5C[C@@](C)(NC(N)=O)CC[C@]5(C)CC[C@@]4(C)[C@]3(C)CC[C@@H]12`, the IC50 in test [7] is more than 4 µM; in test [3] it was more than 40 µM. Further, the residual activity was determined as 81% in test [1] and 24% in test [2].

`CC1(C)/C(=N/O)CC[C@]2(C)[C@H]3C(=O)C=C4[C@@H]5C[C@@](C)(C(=O)O)CC[C@]5(C)CC[C@@]4(C)[C@]3(C)CC[C@@H]12`: the residual activity in test [5] was determined as 1%.

With `CC1(C)NC(=O)CC[C@]2(C)[C@H]3C(=O)C=C4[C@@H]5C[C@@](C)(C(=O)O)CC[C@]5(C)CC[C@@]4(C)[C@]3(C)CC[C@@H]12`, the residual activity was found to be 43% in test [4] and 21% in test [5].

Values taken from ChEMBL document CHEMBL1687943, “Synthesis of new glycyrrhetinic acid derived ring A azepanone, 29-urea and 29-hydroxamic acid derivatives as selective 11β-hydroxysteroid dehydrogenase 2 inhibitors” (Bioorg Med Chem, 2011).
